“And” between values parts separate entries of the source, which are not always exact repeats. Identical values can stand only once.
Tested on: T-47D spheroids with HUVEC/MSC, viability
Experiment: Anticancer human tumor T-47D cell line growth inhibition [PI3K];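 further: spheroids exposed to agents for seven days before reading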;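 on viability, T/C: percent of DMSO vehicle control luminescence so 100% = untreated growth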
Conditions: for viability, T/C: stronger effect = lower value
Description: Combinatorial screen of targeted agents with the PI3K inhibitors inavolisib, alpelisib, duvelisib, and copanlisib in multi-cell type tumor spheroids
A high-throughput screen of multi-cell type tumor spheroids was designed to identify active combinations of targeted small molecules and PI3K pathway inhibitors. Complex spheroids include a stromal component modeled by human endothelial cells (HUVEC) and fibroblasts modeled by human mesenchymal stem cells (MSCs). The concentration ranges selected for each drug and investigational agent were based upon clinically achievable concentrations if the clinical Cmax of the agent was known.
Compounds. The drugs and investigational agents: inavolisib (NSC800729), alpelisib (NSC765974), duvelisib (NSC772469), copanlisib (NSC816437), ipatasertib (NSC767898), afuresertib (NSC778305), talazoparib (NSC767125), sapanisertib (NSC764658), selumetinib (NSC741078), tovorafenib (DAY101, NSC766906), vemurafenib (NSC761431), ravoxertinib (NSC781343), sotorasib (NSC818433), MRTX1133 (NSC 836407), abemaciclib (NSC 768073), palbociclib (NSC758247), venetoclax (NSC 766270), SY5609 (NSC837396), enzalutamide (NSC755605), and darolutamide (NSC825331), were obtained from the National Cancer Institute (NCI) Developmental Therapeutics Program Chemical Repository. The FDA-approved anticancer drug set is available from the NCI Developmental Therapeutics Program. […] The stock solutions were prepared in dimethyl sulfoxide (DMSO, Sigma-Aldrich, St. Louis, MO, cat. D2650) at 800-fold the tested concentration and stored at -70 degrees C prior to their use. All drugs and investigational agents were tested over a range starting from a high concentration at or near the clinical Cmax and decreasing in half-log increments. If the clinical Cmax for an agent had not been determined, the highest concentration tested was 10 microM.
Cell Culture. All cells were maintained in an incubator at 37 degrees C and 5% CO2 with 95% humidity. The PDC lines were cultured according to standard operating procedures established by the NCI PDMR (https://pdmr.cancer.gov/sops/default.htm). All PDCs were thawed and cultured in Matrigel-coated flasks prepared with a working solution of 1X Ham's F-12 nutrient mix, without supplementation (Invitrogen, Waltham, MA, cat. 11765054), 100 U/mL penicillin-streptomycin (Invitrogen, cat. 15140122), and 2.5% Matrigel (Corning Inc., Corning, NY, cat. 354248) for the first three passages. The 354836-022-R-J1-PDC, 475296-252-R-J1-PDC, and 997726-040-R-J2-PDC lines were cultured in 6A media, which includes advanced DMEM/F-12 (Thermo Fisher Scientific, cat. 12634028), 10 mM HEPES (Thermo Fisher Scientific, cat. 15630080), 1X GlutaMAX supplement (Thermo Fisher Scientific, cat. 35050061), 0.1 mg/mL primocin (InvivoGen, San Diego, CA, cat. ant-pm-2), 10% defined fetal bovine serum, heat inactivated (HyClone Laboratories Inc., Logan, UT, cat. SH30070.03HI), 50% L-WRN conditioned media (ATCC, cat. CRL-3276), 1.25 mM N-Acetyl-L-cysteine (Sigma-Aldrich, cat. A9165), 10 mM nicotinamide (Sigma-Aldrich, cat. N0636), 1X B-27 supplement (Thermo Fisher Scientific, cat. 17504044), 1X N-2 supplement (Thermo Fisher Scientific, cat. 17502048), and 10 microM Y-27632 dihydrochloride (Tocris Bioscience, Bristol, United Kingdom, cat. 1254). The 624824-186-R-J2-PDC line was cultured in 6C/Colon 1B media, which includes all 6A media components plus 50 ng/mL human EGF recombinant protein (Thermo Fisher Scientific, cat. PHG0311). […]

[1] = curve of first compound, second compound 0.00316 µM
[2] = curve of first compound, second compound 0.01 µM
[3] = curve of first compound, second compound 0.0316 µM
[4] = curve of first compound, second compound 0.1 µM
[5] = curve of first compound, second compound 0.316 µM
[6] = curve of first compound, second compound 1 µM
[7] = second compound 0.00316 µM, first compound 0.0316 µM
[8] = second compound 0.00316 µM, first compound 0.1 µM
[9] = second compound 0.00316 µM, first compound 0.316 µM
[10] = second compound 0.00316 µM, first compound 1 µM
[11] = second compound 0.00316 µM, first compound 3.16 µM
[12] = second compound 0.00316 µM, first compound 10 µM
[13] = second compound 0.01 µM, first compound 0.0316 µM
[14] = second compound 0.01 µM, first compound 0.1 µM
[15] = second compound 0.01 µM, first compound 0.316 µM
[16] = second compound 0.01 µM, first compound 1 µM
[17] = second compound 0.01 µM, first compound 3.16 µM
[18] = second compound 0.01 µM, first compound 10 µM
[19] = second compound 0.0316 µM, first compound 0.0316 µM
[20] = second compound 0.0316 µM, first compound 0.1 µM
[21] = second compound 0.0316 µM, first compound 0.316 µM
[22] = second compound 0.0316 µM, first compound 1 µM
[23] = second compound 0.0316 µM, first compound 3.16 µM
[24] = second compound 0.0316 µM, first compound 10 µM
[25] = second compound 0.1 µM, first compound 0.0316 µM
[26] = second compound 0.1 µM, first compound 0.1 µM
[27] = second compound 0.1 µM, first compound 0.316 µM
[28] = second compound 0.1 µM, first compound 1 µM
[29] = second compound 0.1 µM, first compound 3.16 µM
[30] = second compound 0.1 µM, first compound 10 µM
[31] = second compound 0.316 µM, first compound 0.0316 µM
[32] = second compound 0.316 µM, first compound 0.1 µM
[33] = second compound 0.316 µM, first compound 0.316 µM
[34] = second compound 0.316 µM, first compound 1 µM
[35] = second compound 0.316 µM, first compound 3.16 µM
[36] = second compound 0.316 µM, first compound 10 µM
[37] = second compound 1 µM, first compound 0.0316 µM
[38] = second compound 1 µM, first compound 0.1 µM
[39] = second compound 1 µM, first compound 0.316 µM
[40] = second compound 1 µM, first compound 1 µM
[41] = second compound 1 µM, first compound 3.16 µM
[42] = second compound 1 µM, first compound 10 µM

## CC1(C)CCC(CN2CCN(c3ccc(C(=O)NS(=O)(=O)c4ccc(NCC5CCOCC5)c([N+](=O)[O-])c4)c(Oc4cnc5[nH]ccc5c4)c3)CC2)=C(c2ccc(Cl)cc2)C1
Compound 0.0316 µM
  viability, T/C: 93.2% [middle of 4 runs]
Compound 0.1 µM
  viability, T/C: 99% [middle of 4 runs]
Compound 0.316 µM
  viability, T/C: 99% and 91.9% and 111% (2×)
Curve of compound
  IC50: > 10000 nM

## Cn1nccc1Nc1nccc(-c2ccn(C(CO)c3ccc(Cl)c(F)c3)c(=O)c2)n1 (stereo not given) + COc1c(OCCCN2CCOCC2)ccc2c3n(c(=NC(=O)c4cnc(N)nc4)nc12)CCN3
[1]
  IC50: > 10000 nM
[2]
  IC50: > 10000 nM
[3]
  IC50: > 10000 nM
[4]
  IC50: < 31.6 nM
[5]
  IC50: < 31.6 nM
[6]
  IC50: < 31.6 nM
[7]
  viability, T/C: 107%
[8]
  viability, T/C: 94%
[9]
  viability, T/C: 94.2%
[10]
  viability, T/C: 102%
[11]
  viability, T/C: 99.9%
[12]
  viability, T/C: 104%
[13]
  viability, T/C: 104%
[14]
  viability, T/C: 88%
[15]
  viability, T/C: 107%
[16]
  viability, T/C: 83.6%
[17]
  viability, T/C: 103%
[18]
  viability, T/C: 86.4%
[19]
  viability, T/C: 70%
[20]
  viability, T/C: 72.3%
[21]
  viability, T/C: 70.1%
[22]
  viability, T/C: 77%
[23]
  viability, T/C: 67.5%
[24]
  viability, T/C: 69.6%
[25]
  viability, T/C: 40.9%
[26]
  viability, T/C: 39.7%
[27]
  viability, T/C: 38.3%
[28]
  viability, T/C: 48.5%
[29]
  viability, T/C: 46.6%
[30]
  viability, T/C: 48.2%
[31]
  viability, T/C: 20.7%
[32]
  viability, T/C: 20.4%
[33]
  viability, T/C: 17.8%
[34]
  viability, T/C: 24.5%
[35]
  viability, T/C: 20.7%
[36]
  viability, T/C: 22.7%
[37]
  viability, T/C: 8.45%
[38]
  viability, T/C: 6.31%
[39]
  viability, T/C: 9.37%
[40]
  viability, T/C: 7.73%
[41]
  viability, T/C: 9.27%
[42]
  viability, T/C: 7.43%

## CC(Cn1ccc(-c2ccc(C#N)c(Cl)c2)n1)NC(=O)c1cc(C(C)O)[nH]n1 (stereo not given) + COc1c(OCCCN2CCOCC2)ccc2c3n(c(=NC(=O)c4cnc(N)nc4)nc12)CCN3
[1]
  IC50: > 10000 nM
[2]
  IC50: > 10000 nM
[3]
  IC50: 8440 nM
[4]
  IC50: < 31.6 nM
[5]
  IC50: < 31.6 nM
[6]
  IC50: < 31.6 nM
[7]
  viability, T/C: 89%
[8]
  viability, T/C: 96%
[9]
  viability, T/C: 96.1%
[10]
  viability, T/C: 88%
[11]
  viability, T/C: 104%
[12]
  viability, T/C: 75.3%
[13]
  viability, T/C: 103%
[14]
  viability, T/C: 83.3%
[15]
  viability, T/C: 101%
[16]
  viability, T/C: 93.5%
[17]
  viability, T/C: 95.4%
[18]
  viability, T/C: 59.5%
[19]
  viability, T/C: 69.2%
[20]
  viability, T/C: 77.4%
[21]
  viability, T/C: 74.7%
[22]
  viability, T/C: 82.1%
[23]
  viability, T/C: 79%
[24]
  viability, T/C: 45.7%
[25]
  viability, T/C: 38.9%
[26]
  viability, T/C: 39.2%
[27]
  viability, T/C: 41.5%
[28]
  viability, T/C: 45.7%
[29]
  viability, T/C: 40.7%
[30]
  viability, T/C: 33.9%
[31]
  viability, T/C: 14.8%
[32]
  viability, T/C: 15.9%
[33]
  viability, T/C: 15.3%
[34]
  viability, T/C: 14.4%
[35]
  viability, T/C: 18.7%
[36]
  viability, T/C: 20.4%
[37]
  viability, T/C: 8.77%
[38]
  viability, T/C: 8.22%
[39]
  viability, T/C: 7.63%
[40]
  viability, T/C: 5.85%
[41]
  viability, T/C: 7.24%
[42]
  viability, T/C: 3.67%

## CCN1CCN(Cc2ccc(Nc3ncc(F)c(-c4cc(F)c5nc(C)n(C(C)C)c5c4)n3)nc2)CC1 + Cc1nc(NC(=O)N2CCCC2C(N)=O)sc1-c1ccnc(C(C)(C)C(F)(F)F)c1
[3]
  IC50: > 1000 nM
[4]
  IC50: > 1000 nM
[5]
  IC50: > 1000 nM
[6]
  IC50: > 1000 nM
Curve of first compound, second compound 3.16 µM
  IC50: 8.56 nM
Curve of first compound, second compound 10 µM
  IC50: < 3.16 nM
Second compound 0.0316 µM, first compound 0.00316 µM
  viability, T/C: 111%
Second compound 0.0316 µM, first compound 0.01 µM
  viability, T/C: 87.8%
[19]
  viability, T/C: 89%
[20]
  viability, T/C: 85%
[21]
  viability, T/C: 80.9%
[22]
  viability, T/C: 92.7%
Second compound 0.1 µM, first compound 0.00316 µM
  viability, T/C: 100%
Second compound 0.1 µM, first compound 0.01 µM
  viability, T/C: 73.7%
[25]
  viability, T/C: 82.1%
[26]
  viability, T/C: 72.3%
[27]
  viability, T/C: 80.7%
[28]
  viability, T/C: 85.2%
Second compound 0.316 µM, first compound 0.00316 µM
  viability, T/C: 96%
Second compound 0.316 µM, first compound 0.01 µM
  viability, T/C: 73.4%
[31]
  viability, T/C: 70.2%
[32]
  viability, T/C: 67%
[33]
  viability, T/C: 64.4%
[34]
  viability, T/C: 73.2%
Second compound 1 µM, first compound 0.00316 µM
  viability, T/C: 78.9%
Second compound 1 µM, first compound 0.01 µM
  viability, T/C: 64.5%
[37]
  viability, T/C: 55.9%
[38]
  viability, T/C: 51.9%
[39]
  viability, T/C: 58.9%
[40]
  viability, T/C: 70.3%
Second compound 3.16 µM, first compound 0.00316 µM
  viability, T/C: 61.2%
Second compound 3.16 µM, first compound 0.01 µM
  viability, T/C: 49.2%
Second compound 3.16 µM, first compound 0.0316 µM
  viability, T/C: 44.2%
Second compound 3.16 µM, first compound 0.1 µM
  viability, T/C: 39.3%
Second compound 3.16 µM, first compound 0.316 µM
  viability, T/C: 47.1%
Second compound 3.16 µM, first compound 1 µM
  viability, T/C: 53.2%
Second compound 10 µM, first compound 0.00316 µM
  viability, T/C: 30.5%
Second compound 10 µM, first compound 0.01 µM
  viability, T/C: 26%
Second compound 10 µM, first compound 0.0316 µM
  viability, T/C: 24.5%
Second compound 10 µM, first compound 0.1 µM
  viability, T/C: 27.2%
Second compound 10 µM, first compound 0.316 µM
  viability, T/C: 33.1%
Second compound 10 µM, first compound 1 µM
  viability, T/C: 38.6%

From PubChem BioAssay AID1963959 (Molecular Pharmacology Branch, DTP, NCI, 2024)
